In patent US8470763B2, “Alpha-amino-N-substituted amides, pharmaceutical composition containing them and uses thereof” (Shanghai Institute of Materia Medica Chinese Academy of …, priority 2007, dated 2013):
Where two headings read alike, the source gives them in different places.

Assays:
[1] = system: heterograft of MDA-MB-4355 human breast cancer cells; settings: background; cited from earlier work
[2] = system: SGC-7901 (Gastric Cancer); assay: SRB assay, SGC-7901; assay type: cell-based; settings: Homo sapiens, 72 h, read-out: IC50 (μM) (mean ± SD)
Procedure: (§1) Experimental method: The antineoplasmic activities in vitro of the compounds were determined by SRB assay. The detailed procedure was as follows. The cells in the logarithmic growth phase were inoculated on a 96-well microculture plate with a suitable density (100 μl/well), and allowed to attach overnight, followed by addition of the compound at different concentrations to be treated for 72 h. For each concentration, the test was carried out in triplicate wells, and included control wells containing the aqueous medium of normal saline and a blank well containing all medium without cells for zeroing. After cultured overnight, the cells were treated with the compound at different concentrations for 72 h. After the treatment, the culture medium was removed, and the cells were fixed with 10% (wt/vol) trichloroacetic acid (100 μL/well) at 4° C. for 1 h. The cells were then washed with distilled water for 5 times, and died at room temperature, followed by addition of a SRB solution (4 mg/mL, dissolved in 1% glacial acetic acid) at 100 μL/well. The cells were incubated and stained at room temperature for 15 min, then washed with 1% glacial acetic acid for 5 times to remove the uncombined SRB, and died at room temperature. 100 μL of 10 mM Tris solution was added in each well, and the Optical Density (OD) were measured at a wavelength of 560 nm on a VERSMax ELISA Reader (Molecule Devices). The growth inhibition of the compound against tumor cells was calculated according to the following equation: Growth inhibition (%)=(ODcontrol−ODtreated)/ODcontrol×100%.
(§2) IC50 (the concentration of the sample compound that is required for 50% inhibition of cell growth) was calculated by using the Logit method based on the measurement, and each test was repeated for 3 times to calculate the mean value and standard deviation.

[3] = system: DU145 (Prostatic Cancer); assay: SRB assay, DU145; assay type: cell-based; settings: Homo sapiens, DU-145, 72 h, read-out: IC50 (μM) (mean ± SD)
Procedure: as §1, §2

[4] = system: HepG2 (Liver Cancer); assay: SRB assay, HepG2; assay type: cell-based; settings: Homo sapiens, 72 h, read-out: IC50 (μM) (mean ± SD)
Procedure: as §1, §2

[5] = system: HCT-116 (Colon Cancer); assay: SRB assay, HCT-116; assay type: cell-based; settings: Homo sapiens, 72 h, read-out: IC50 (μM) (mean ± SD)
Procedure: as §1, §2

[6] = system: HMEC (Others); assay: SRB assay, HMEC; assay type: cell-based; settings: Homo sapiens, 72 h, read-out: IC50 (μM) (mean ± SD)
Procedure: as §1, §2

[7] = system: HO-8910 (Ovarian Cancer); assay: SRB assay, HO-8910; assay type: cell-based; settings: 72 h, read-out: IC50 (μM) (mean ± SD)
Procedure: as §1, §2

[8] = background; cited from earlier work
[9] = system: MDA-MB-435 (Breast Cancer); assay: SRB assay, MDA-MB-435; assay type: cell-based; settings: Homo sapiens, 72 h, read-out: IC50 (μM) (mean ± SD)
Procedure: as §1, §2

[10] = system: BEL-7402 (Liver Cancer); assay: SRB assay, BEL-7402; assay type: cell-based; settings: Homo sapiens, 72 h, read-out: IC50 (μM) (mean ± SD)
Procedure: as §1, §2

[11] = system: A549 (Lung Cancer); assay: SRB assay, A549; assay type: cell-based; settings: Homo sapiens, 72 h, read-out: IC50 (μM) (mean ± SD)
Procedure: as §1, §2

[12] = system: 7404 (Liver Cancer); assay: SRB assay, 7404; assay type: cell-based; settings: 72 h, read-out: IC50 (μM) (mean ± SD)
Procedure: as §1, §2

[13] = system: human tumor cells; settings: background; cited from earlier work
[14] = system: MDA-MB-435S human breast cancer cells; assay: MTT assay, proliferation of MDA-MB-435S cells; assay type: cell-based; settings: Homo sapiens, 72 h
Procedure: The experiments for evaluating the antineoplasmic activities of the compounds according to the present invention were carried out, and the compounds' antineoplasmic activities in vitro was evaluated by determining the inhibitory activities thereof against the proliferation of MDA-MB-435S human breast cancer cells.
The antineoplasmic activities were determined by using the MTT assay, which is based on the metabolic reduction of 3-(4,5-dimethylthylthiazol-2-yl)-2,5-diphenyl tetrazolium bromide (MTT). The dehydrogenases, which are related to NADP (niacinamide adenine dinucleotide phosphate, coenzyme) and present in mitochondrions of living cells, can reduce the yellow MTT to an insoluble, dark purple formazan. […] After the formazan is dissolved in DMSO, the optical density is determined on an ELISA Reader at the wavelength of 550/690 nm.
(§3) The adhered MDA-MB-4355 cells in logarithmic growth phase, were digested by 0.05% trypsogen, counted and formulated into a cell suspension with a medium. After counted, the suspension was inoculated on a 96-well plate with 3000 cells and 100 μl medium per well. The inoculated 96-well plate was placed overnight in an incubator at 37 with 5% CO2 to allow the cells to adhere to the wall. On the next day, the administration of the drugs started. Before the administration, into some of the control wells, each was added 20 μl of the MTT solution (5 mg/ml) without removing the medium therein. After incubated for 3 h, the absorption at A550/690 was recorded as the initial cell concentration. For the drug wells, each was added into 100 μl of medium containing 2 μl of compound solution. For the control wells which use DMSO as background control, each was also added into 100 μl of medium containing 2 μl of DMSO. In addition, each experiment was carried out with adriamycin as the positive control. Subsequently, the 96-well plate was incubated in an incubator at 37 with 5% CO2 for 72 h. each compound was tested in triplicate wells (6 μl of compound solution was put into a sterilized eppendorf centrifuge tube, then 300 μl of medium was added and mixed well, and the mixture was distributed into 3 wells respectively), and at six concentrations which form a gradient. 3 days (72 h) later, 40 μl of MTT solution (5 mg/ml) was put into each well directly (without sucking off the medium therein), and the plate was incubated in the incubator for 3 h and then taken out. The liquid in each well was sucked off, and then 100 μl of DMSO was put into each well to dissolve the crystal completely with slight shake. The absorbance of the solution in each well was determined at 550/690 nm on an ELISA Reader as the cell density after treated with the compound. The growth inhibition of compound against breast cancer cells MDA-MB-435S was represented by the cell survival rate, and IC50 was determined from the profile of cell survival rate vs compound concentration. The calculating formula was as follows: cell survival rate=[(cells+compound)A550/690/(cells+compound vector DMSO)A550/690]×100%

[15] = system: HPAF-II (Pancreatic Cancer); assay: SRB assay, HPAF-II; assay type: cell-based; settings: Homo sapiens, 72 h, read-out: IC50 (μM) (mean ± SD)
Procedure: as §1, §2

[16] = system: SMMC-7721 (Liver Cancer); assay: SRB assay, SMMC-7721; assay type: cell-based; settings: Homo sapiens, 72 h, read-out: IC50 (μM) (mean ± SD)
Procedure: as §1, §2

[17] = system: Zip177 (Liver Cancer); assay: SRB assay, Zip177; assay type: cell-based; settings: 72 h, read-out: IC50 (μM) (mean ± SD)
Procedure: as §1, §2

[18] = clinical study entered 2001; cited from earlier work
[19] = system: lung adenocarcinoma cells A549; assay: MTT assay, A549 cells; assay type: cell-based; settings: Homo sapiens, 72 h
Procedure: as §3
(§4) MDA-MB-435S: human breast cancer cells; HCT116: colon cancer cells; A549: lung adenocarcinoma cells; Hela: uterine cervix cancer cells.
(§5) The tests were performed in the same manner as that of experimental example 1, except that for Hela cells, after counted, each well was seeded with 1000 cells and 100 μl of medium on a 96-well plate.

[20] = system: Hela uterine cervix cancer cells; assay: MTT assay, Hela cells; assay type: cell-based; settings: Homo sapiens, 72 h, 1000 cells per well
Procedure: as §3, §4, §5

[21] = system: colon cancer cells HCT116; assay: MTT assay, HCT116 cells; assay type: cell-based; settings: Homo sapiens, HCT-116, 72 h
Procedure: as §3, §4, §5

[22] = read-out: Cell Survival Rate IC50
[23] = note: MDA-MB-435S, read-out: IC50 (MDA-MB-435)

| SMILES | IC50 [2] [µM] | IC50 [3] [µM] | IC50 [4] [µM] | IC50 [5] [µM] | IC50 [6] [µM] | IC50 [7] [µM] | IC50 [9] [µM] | IC50 [10] [µM] | IC50 [11] [µM] | IC50 [12] [µM] | IC50 [14, 22] [nM] | IC50 [15] [µM] | IC50 [16] [µM] | IC50 [17] [µM] | IC50 [19] [nM] | IC50 [14, 23] [nM] | IC50 [20] [nM] | IC50 [21] [nM] | other results |
| --- | --- | --- | --- | --- | --- | --- | --- | --- | --- | --- | --- | --- | --- | --- | --- | --- | --- | --- | --- |
| CO[C@@H](C(=O)N[C@H]1CC[C@@H](OC(=O)C2CCCCC2)CNC1=O)[C@H](O)[C@@H](O)[C@H](O)/C=C/C(C)(C)C [LAF389, reference compound] | 4.96 ± 0.4 | 0.42 ± 0.21 | 0.21 ± 0.09 | 0.63 ± 0.18 | 0.83 ± 0.45 | > 20 | 0.29 ± 0.02 | 0.56 ± 0.4 | 0.05 ± 0.01 | > 20 | 610 | 3.23 ± 2.13 | 1.25 ± 0.76 | 2.79 ± 0.15 |  |  |  |  | growth of heterograft in vivo [1]: comparable to Bengamide B; solubility [8]: good solubility; activities against human tumor cells in vitro [13]: comparable to Bengamide B; side effects in clinical study [18]: side effects such as taste disturbance, blurred vision; therapeutic effects in clinical study [18]: did not possess the foreseen therapeutic effects |
| CO[C@@H](C(=O)N[C@@H](C)C(=O)NCCOC(=O)CCc1ccccc1)[C@H](O)[C@@H](O)[C@H](O)/C=C/C(C)(C)C [Compound L508] | 2.21 ± 0.67 | 0.29 ± 0.06 | 0.56 ± 0.08 | 0.35 ± 0.11 | 0.21 ± 0.02 | > 20 | 0.08 ± 0.01 | 0.33 ± 0.21 | 0.03 ± 0.01 | > 20 |  | 1.57 ± 0.35 | 0.65 ± 0.26 | 0.4 ± 0.21 | 76 ± 8 | 398 ± 128 | 158 ± 32 | 71 ± 7 |  |
| CCCCCCCCCCCCCC(=O)O[C@H]1CC[C@H](NC(=O)[C@H](OC)[C@H](O)[C@@H](O)[C@H](O)/C=C/C(C)C)C(=O)N(C)C1 [bengamide B] |  |  |  |  |  |  |  |  |  |  |  |  |  |  |  |  |  |  | growth of heterograft in vivo [1]: remarkably depress the growth; solubility [8]: poor solubility; activities against human tumor cells in vitro [13]: nanomolar level |
| CO[C@@H](C(=O)N[C@@H](C)C(=O)NCCOC1CCCCC1)[C@H](O)[C@@H](O)[C@H](O)/C=C/C(C)(C)C [Compound L458e] |  |  |  |  |  |  |  |  |  |  | 2190 |  |  |  | 594 ± 69 | 2830 ± 695 | 822 ± 175 | 1510 ± 283 |  |
| CCOC(=O)C(COC(=O)C1CCCCC1)NC(=O)[C@H](C)NC(=O)[C@H](OC)[C@H](O)[C@@H](O)[C@H](O)/C=C/C(C)(C)C (stereo partly drawn) [Compound L558a] | 1.97 ± 0.86 | 0.14 ± 0.01 | 1.11 ± 0.49 | 0.58 ± 0.25 | 0.25 ± 0.14 | > 20 | 0.14 ± 0.13 | 0.28 ± 0.01 | 0.08 ± 0.02 | > 20 | 200 | 2.01 ± 1.06 | 0.41 ± 0.15 | 0.26 ± 0.05 | 98 ± 18 | 201 ± 47 | 24 ± 3 | 51 ± 5 |  |
| CCOC(=O)CNC(=O)[C@H](C)NC(=O)[C@H](OC)[C@H](O)[C@@H](O)[C@H](O)/C=C/C(C)(C)C [Compound L418] |  |  |  |  |  |  |  |  |  |  | 5170 |  |  |  | 1550 ± 241 | 5170 ± 941 | 572 ± 171 | 1500 ± 215 |  |
| CO[C@@H](C(=O)N[C@@H](C)C(=O)NCCOC(=O)C1CC=CCC1)[C@H](O)[C@@H](O)[C@H](O)/C=C/C(C)(C)C (stereo partly drawn) [Compound L484] |  |  |  |  |  |  |  |  |  |  | 540 |  |  |  | 219 ± 30 | 541 ± 205 | 188 ± 42 | 130 ± 15 |  |
